A short description of data set [1]: PK profile of GLP-2-2G peptide, GLP-2-hyFc5 and GLP-2-hyFc9, subcutaneous, rats. Conditions: in vivo, sc, rat, serum, GLP-2 ELISA kit. More on the design: species or system Sprague Dawley rats. The protocol: In order to confirm the pharmacokinetic profiles (PK profiles) of the GLP-2-hyFc5 and GLP-2-hyFc9 fusion polypeptides prepared above, experiments were performed as follows.
Male Sprague Dawley rats (3 rats/group) were administered subcutaneously with respective proteins (GLP-2-2G peptide, GLP-2-hyFc5, and GLP-2-hyFc9). Blood samples were collected before the administration and after the administration at 0.08-, 0.16-, 0.5-, 2-, 4-, 8-, 24-, 48-, 96-, 120-, and 168 hours, respectively. The blood samples were stored at room temperature for 30 minutes for agglutination. The samples were centrifuged at 3000 rpm for 10 minutes to obtain serum from each sample and then stored in a deep freezer. The samples were quantitated by dilution to be analyzed in a position on a straight line of standard curve using GLP-2 kit (Millipore, Cat. No. EZGLP2-37K).

For data set [2] the following is noted: cited from earlier work.

What is called half-life is the time needed for the level to fall by half in the phase considered. In data set [1], `CC[C@H](C)[C@H](NC(=O)[C@H](Cc1ccccc1)NC(=O)[C@H](CC(=O)O)NC(=O)[C@H](CCCNC(=N)N)NC(=O)[C@H](C)NC(=O)[C@H](C)NC(=O)[C@H](CC(C)C)NC(=O)[C@H](CC(N)=O)NC(=O)[C@H](CC(=O)O)NC(=O)[C@H](CC(C)C)NC(=O)[C@@H](NC(=O)[C@@H](NC(=O)[C@H](CC(N)=O)NC(=O)[C@H](CCSC)NC(=O)[C@H](CCC(=O)O)NC(=O)[C@H](CC(=O)O)NC(=O)[C@H](CO)NC(=O)[C@H](Cc1ccccc1)NC(=O)[C@H](CO)NC(=O)CNC(=O)[C@H](CC(=O)O)NC(=O)CNC(=O)[C@@H](N)Cc1c[nH]cn1)[C@@H](C)O)[C@@H](C)CC)C(=O)N[C@@H](CC(N)=O)C(=O)N[C@@H](Cc1c[nH]c2ccccc12)C(=O)N[C@@H](CC(C)C)C(=O)N[C@H](C(=O)N[C@@H](CCC(N)=O)C(=O)N[C@H](C(=O)N[C@@H](CCCCN)C(=O)N[C@H](C(=O)N[C@H](C(=O)N[C@@H](CC(=O)O)C(=O)O)[C@@H](C)O)[C@@H](C)CC)[C@@H](C)O)[C@@H](C)CC` [GLP-2-2G, reference compound] had a half-life of 1.2 h.
Regarding glucagon like peptide-2 [GLP-2], the in-vivo half-life result in data set [2] is recorded as “about 7 minutes”.

The values are drawn from patent US10538569B2, “Fusion polypeptide containing GLP and immunoglobulin hybrid Fc and use thereof” (GENEXINE, INC., priority 2014, dated 2020).
